Values after ≈ are worked out from the molar mass of the structure shown.
test system: Staphylococcus aureus; experiment: Antibacterial activity against methicillin-resistant Staphylococcus aureus ST398; format: functional

Q: For CC1(C)S[C@@H]2[C@H](NC(=O)[C@H](N)c3ccccc3)C(=O)N2[C@H]1C(=O)O [AMPICILLIN], which MIC is on record?
A: Its MIC is 8 µg/mL (≈ 22.9 µM).

Q: For Cc1onc(-c2ccccc2)c1C(=O)N[C@@H]1C(=O)N2[C@@H]1SC(C)(C)[C@@H]2C(=O)O [OXACILLIN], which MIC is on record?
A: The MIC was 8 µg/mL (≈ 19.9 µM).

Q: Which MIC does the source give for CC1(C)S[C@@H]2[C@H](NC(=O)Cc3ccccc3)C(=O)N2[C@H]1C(=O)O [PENICILLIN G] here?
A: Its MIC is 8 µg/mL (≈ 23.9 µM).

Q: CN(C)[C@@H]1C(O)=C(C(N)=O)C(=O)[C@@]2(O)C(O)=C3C(=O)c4c(O)cccc4[C@@](C)(O)[C@H]3C[C@@H]12 [TETRACYCLINE] was tested. Which MIC did it give?
A: Its MIC is 64 µg/mL (≈ 144 µM).

Q: With COc1cc(Cc2cnc(N)nc2N)cc(OC)c1OC [TRIMETHOPRIM] as the compound, how does the MIC read?
A: Its MIC is > 256 µg/mL.

test system: Escherichia coli; experiment: Antibacterial activity against Escherichia coli JM109 expressing Bgl2

Q: For COc1cc(Cc2cnc(N)nc2N)cc(OC)c1OC [TRIMETHOPRIM], which MIC is on record?
A: The MIC was ≥ 512 µg/mL.
